Test results: ChEMBL document CHEMBL1208691, “Synthesis of polyhalo acridones as pH-sensitive fluorescence probes” (Bioorg Med Chem Lett, 2010)
In brackets after ≈: the same amount, converted by molar mass.

How the values were obtained:
Assay type in all cases: functional, cell-based
A-431 = experiment: Cytotoxicity against human A431 cells by MTT assay
HL-60 = experiment: Cytotoxicity against human HL60 cells by MTT assay
SK-OV-3 = experiment: Cytotoxicity against human SKOV3 cells by MTT assay
K562 = experiment: Cytotoxicity against human K562 cells by MTT assay
HepG2 = experiment: Cytotoxicity against human HepG2 cells by MTT assay

In the case of `NC(=O)c1c(Cl)c(Cl)c2[nH]c3ccccc3c(=O)c2c1Cl`, the IC50 (A-431) is reported as 1.2 mg/L (≈ 3.51 µM), the IC50 (HL-60) is reported as 5.7 mg/L (≈ 16.7 µM) and the IC50 (SK-OV-3) is reported as 28 mg/L (≈ 82 µM). For the same compound, the IC50 (K562) was 7.7 mg/L (≈ 22.5 µM) and the IC50 (HepG2) was 1.9 mg/L (≈ 5.56 µM).
Compound `NC(=O)c1c(F)c(Cl)c2[nH]c3ccccc3c(=O)c2c1F` has an IC50 (A-431) of 0.08 mg/L (≈ 0.259 µM), an IC50 (HL-60) of 0.2 mg/L (≈ 0.648 µM) and an IC50 (SK-OV-3) of 4 mg/L (≈ 13 µM). The IC50 (K562) was 0.2 mg/L (≈ 0.648 µM) and the IC50 (HepG2) was 0.2 mg/L (≈ 0.648 µM).
`NC(=O)c1c(F)c(F)c2[nH]c3ccccc3c(=O)c2c1F` gave an IC50 (A-431) of 0.05 mg/L (≈ 0.171 µM), an IC50 (HL-60) of 2 mg/L (≈ 6.84 µM) and an IC50 (SK-OV-3) of 4.5 mg/L (≈ 15.4 µM). It also gave an IC50 (K562) of 4.5 mg/L (≈ 15.4 µM) and an IC50 (HepG2) of 6.5 mg/L (≈ 22.2 µM).
In the case of `NC(=O)c1c(F)c(Cl)c2[nH]c3ccc(Cl)cc3c(=O)c2c1F`, the IC50 (A-431) is reported as 0.3 mg/L (≈ 0.874 µM), the IC50 (HL-60) is reported as 16.6 mg/L (≈ 48.4 µM) and the IC50 (SK-OV-3) is reported as 5.3 mg/L (≈ 15.4 µM). The IC50 (K562) was 3 mg/L (≈ 8.74 µM) and the IC50 (HepG2) was 3.4 mg/L (≈ 9.91 µM).
With `NC(=O)c1c(F)c(F)c2[nH]c3ccc(Cl)cc3c(=O)c2c1F` the IC50 (A-431) was 0.3 mg/L (≈ 0.918 µM), the IC50 (HL-60) was 1.3 mg/L (≈ 3.98 µM) and the IC50 (SK-OV-3) was 3.9 mg/L (≈ 11.9 µM). For the same compound, the IC50 (K562) was 2.7 mg/L (≈ 8.27 µM) and the IC50 (HepG2) was 4.3 mg/L (≈ 13.2 µM).
